Test results published in ChEMBL document CHEMBL1201862, “PubChem BioAssay data set” (2004).
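Compound exposure: 48 hours, 5 concentrations, 96-well plates. The concentration for 50% growth inhibition is given as GI50.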 Active and inactive are the calls of the source. Rule as the data show it: active = GI50 up to about 1.1 µM and inactive = higher.

Legend:
Assay in all cases: growth of human tumour cells (NCI), 48 h
[1] = system: 786-0
[2] = system: A549
[3] = system: ACHN
[4] = system: BT-549
[5] = system: CCRF-CEM
[6] = system: COLO 205
[7] = system: DU-145
[8] = system: EKVX
[9] = system: HCC 2998
[10] = system: HCT-116
[11] = system: HCT-15
[12] = system: HL-60
[13] = system: HOP-62
[14] = system: HOP-92
[15] = system: HT-29
[16] = system: Hs-578T
[17] = system: IGROV-1
[18] = system: K562
[19] = system: KM12
[20] = system: M14
[21] = system: MCF7
[22] = system: MDA-MB-231
[23] = system: MDA-MB-435
[24] = system: MDA-N
[25] = system: MOLT-4
[26] = system: Malme-3M
[27] = system: NCI-H226
[28] = system: NCI-H23
[29] = system: NCI-H460
[30] = system: NCI-H522
[31] = system: NCI/ADR-RES
[32] = system: OVCAR-3
[33] = system: OVCAR-4
[34] = system: OVCAR-5
[35] = system: OVCAR-8
[36] = system: PC-3
[37] = system: RPMI-8226
[38] = system: RXF 393
[39] = system: SF-268
[40] = system: SF-295
[41] = system: SF-539
[42] = system: SK-MEL-28
[43] = system: SK-MEL-2
[44] = system: SK-MEL-5
[45] = system: SK-OV-3
[46] = system: SN12C
[47] = system: SNB-19
[48] = system: SNB-75
[49] = system: SW-620
[50] = system: T47D
[51] = system: TK-10
[52] = system: U-251
[53] = system: UACC-257
[54] = system: UACC-62
[55] = system: UO-31

**Q.** With `O=[N+]([O-])c1ccc(/C=N\N=c2/ccc([N+](=O)[O-])c[nH]2)cc1` as the compound, how does the GI50 [1] read?
**A.** The GI50 was > 100 µM (inactive).

**Q.** What about the GI50 [2] of the same compound?
**A.** Its GI50 is > 100 µM (inactive).

**Q.** And the GI50 [3]?
**A.** Its GI50 is > 100 µM (inactive).

**Q.** What about the GI50 [4] of the same compound?
**A.** The GI50 was > 100 µM (inactive).

**Q.** And the GI50 [5]?
**A.** Its GI50 is > 100 µM (inactive).

**Q.** And the GI50 [6]?
**A.** The GI50 was > 100 µM (inactive).

**Q.** And the GI50 [7]?
**A.** The GI50 was > 100 µM (inactive).

**Q.** What about the GI50 [8] of the same compound?
**A.** The GI50 was > 100 µM (inactive).

**Q.** What about the GI50 [9] of the same compound?
**A.** Its GI50 is > 100 µM (inactive).

**Q.** What about the GI50 [10] of the same compound?
**A.** Its GI50 is > 100 µM (inactive).

**Q.** And the GI50 [11]?
**A.** Its GI50 is over 100 µM.

**Q.** And the GI50 [12]?
**A.** The GI50 was > 100 µM (inactive).

**Q.** What about the GI50 [13] of the same compound?
**A.** The GI50 was > 100 µM (inactive).

**Q.** And the GI50 [14]?
**A.** The GI50 was > 100 µM (inactive).

**Q.** And the GI50 [15]?
**A.** Its GI50 is > 100 µM (inactive).

**Q.** What about the GI50 [16] of the same compound?
**A.** Its GI50 is > 100 µM (inactive).

**Q.** And the GI50 [17]?
**A.** The GI50 was > 100 µM (inactive).

**Q.** And the GI50 [18]?
**A.** The GI50 was > 100 µM (inactive).

**Q.** And the GI50 [19]?
**A.** Its GI50 is > 100 µM (inactive).

**Q.** And the GI50 [20]?
**A.** The GI50 was > 100 µM (inactive).

**Q.** What about the GI50 [21] of the same compound?
**A.** The GI50 was > 100 µM (inactive).

**Q.** What about the GI50 [22] of the same compound?
**A.** The GI50 was 46 µM (inactive).

**Q.** And the GI50 [23]?
**A.** The GI50 was > 100 µM (inactive).

**Q.** What about the GI50 [24] of the same compound?
**A.** Its GI50 is > 100 µM (inactive).

**Q.** What about the GI50 [25] of the same compound?
**A.** The GI50 was > 100 µM (inactive).

**Q.** And the GI50 [26]?
**A.** The GI50 was > 100 µM (inactive).

**Q.** What about the GI50 [27] of the same compound?
**A.** Its GI50 is > 100 µM (inactive).

**Q.** And the GI50 [28]?
**A.** The GI50 was > 100 µM (inactive).

**Q.** And the GI50 [29]?
**A.** The GI50 was > 100 µM (inactive).

**Q.** What about the GI50 [30] of the same compound?
**A.** The GI50 was > 100 µM (inactive).

**Q.** What about the GI50 [31] of the same compound?
**A.** The GI50 was > 100 µM (inactive).

**Q.** What about the GI50 [32] of the same compound?
**A.** Its GI50 is > 100 µM (inactive).

**Q.** What about the GI50 [33] of the same compound?
**A.** Its GI50 is > 100 µM (inactive).

**Q.** And the GI50 [34]?
**A.** The GI50 was > 100 µM (inactive).

**Q.** And the GI50 [35]?
**A.** The GI50 was > 100 µM (inactive).

**Q.** And the GI50 [36]?
**A.** Its GI50 is > 100 µM (inactive).

**Q.** What about the GI50 [37] of the same compound?
**A.** Its GI50 is > 100 µM (inactive).

**Q.** What about the GI50 [38] of the same compound?
**A.** Its GI50 is > 100 µM (inactive).

**Q.** What about the GI50 [39] of the same compound?
**A.** Its GI50 is > 100 µM (inactive).

**Q.** And the GI50 [40]?
**A.** Its GI50 is > 100 µM (inactive).

**Q.** What about the GI50 [41] of the same compound?
**A.** The GI50 was 32.6 µM (inactive).

**Q.** And the GI50 [42]?
**A.** Its GI50 is > 100 µM (inactive).

**Q.** And the GI50 [43]?
**A.** Its GI50 is > 100 µM (inactive).

**Q.** What about the GI50 [44] of the same compound?
**A.** The GI50 was > 100 µM (inactive).

**Q.** And the GI50 [45]?
**A.** The GI50 was 86.9 µM (inactive).

**Q.** What about the GI50 [46] of the same compound?
**A.** Its GI50 is > 100 µM (inactive).

**Q.** What about the GI50 [47] of the same compound?
**A.** Its GI50 is > 100 µM (inactive).

**Q.** And the GI50 [48]?
**A.** The GI50 was 90.6 µM (inactive).

**Q.** And the GI50 [49]?
**A.** The GI50 was > 100 µM (inactive).

**Q.** What about the GI50 [50] of the same compound?
**A.** Its GI50 is > 100 µM (inactive).

**Q.** And the GI50 [51]?
**A.** The GI50 was > 100 µM (inactive).

**Q.** What about the GI50 [52] of the same compound?
**A.** The GI50 was 69 µM (inactive).

**Q.** And the GI50 [53]?
**A.** Its GI50 is > 100 µM (inactive).

**Q.** And the GI50 [54]?
**A.** The GI50 was > 100 µM (inactive).

**Q.** What about the GI50 [55] of the same compound?
**A.** The GI50 was > 100 µM (inactive).
